Assay results: patent US20120022040A1, “ANTIMICROBIALS” (priority 2008, published 2012)
≈ marks a conversion by molar mass, not a printed value.

Legend:
Kleb 4352 [1] = assay: MIC90 determination by serial dilution; type: cell-based, Klebsiella pneumonia; conditions: Klebsiella pneumoniae, dilution series from the Max Conc.
Description: (§1) Compounds (1), (2), and (3) were tested to determine MIC90 values.
(§2) Rules for determining MIC values: Each extract has a starting concentration which is diluted 7 times for a total of 8 dilutions. The MIC is the lowest dilution without growth. Each serial dilution is repeated three times for three identical dilutions. For reporting the results, the following rules were used. Inconsistent values were thrown out. For instance, the MIC value reported for an extract with MIC readings of 4, 4, and 2 would be four (the 2 is thrown out). If the readings are all different and in series like 2, 4, and 8, the median MIC value of 4 would be reported. If the three values are all different and not in series, an error is reported. Besides the three identical dilutions at the same starting concentration, each extract has dilutions starting at three different concentrations: 64, 4, and 0.25 μg/mL. Each extract therefore has 3 identical dilution series at 3 different starting concentrations—a total of 24 dilutions. The dilutions overlap which can result in a disagreement in MIC values for two different starting dilutions. Since a small amount of error is introduced with each dilution, the MIC readings with the fewest dilutions are selected as the correct MIC values.
(§3) Abbreviations: MRSA=methicillin-resistant Staphylococcus aureus; SA=Staphylococcus aureus; PA=Pseudomonas aeruginosa; Kleb=Klebsiella pneumonia; EC=Escherichia coli; VSE=Vancomycin-sensitive enterococci faecium.

Kleb 4352 [2] = assay: IC50 determination (XlFit dose response model 200); type: cell-based, Klebsiella pneumonia; conditions: Klebsiella pneumoniae, average of 3 replicates
Description: (§4) Compounds (1), (2), and (3) were tested to determine IC50 values. IC50 was determined using XlFit add-in using dose response model 200. The average of 3 replicates is presented for each compound in Table 2.

EC 25922 [3] = assay: IC50 determination (XlFit dose response model 200); type: cell-based; conditions: Escherichia coli, average of 3 replicates
Description: as §4

PA 27853 [4] = assay: IC50 determination (XlFit dose response model 200); type: cell-based; conditions: Pseudomonas aeruginosa, average of 3 replicates
Description: as §4

SA 29213 [5] = assay: IC50 determination (XlFit dose response model 200); type: cell-based; conditions: Staphylococcus aureus, average of 3 replicates
Description: as §4

VSE 49452 [6] = assay: IC50 determination (XlFit dose response model 200); type: cell-based, Vancomycin-sensitive enterococci faecium; conditions: average of 3 replicates
Description: as §4

VSE 6569 [7] = assay: IC50 determination (XlFit dose response model 200); type: cell-based, Vancomycin-sensitive enterococci faecium; conditions: average of 3 replicates
Description: as §4

MRSA 43300 [8] = assay: MIC90 determination by serial dilution; type: cell-based, methicillin-resistant Staphylococcus aureus; conditions: Staphylococcus aureus, dilution series from the Max Conc.
Description: as §1, §2, §3

VSE 49452 [9] = assay: MIC90 determination by serial dilution; type: cell-based, Vancomycin-sensitive enterococci faecium; conditions: dilution series from the Max Conc.
Description: as §1, §2, §3

VSE 6569 [10] = assay: MIC90 determination by serial dilution; type: cell-based, Vancomycin-sensitive enterococci faecium; conditions: dilution series from the Max Conc.
Description: as §1, §2, §3

EC 25922 [11] = assay: MIC90 determination by serial dilution; type: cell-based; conditions: Escherichia coli, dilution series from the Max Conc.
Description: as §1, §2, §3

PA 27853 [12] = assay: MIC90 determination by serial dilution; type: cell-based; conditions: Pseudomonas aeruginosa, dilution series from the Max Conc.
Description: as §1, §2, §3

SA 29213 [13] = assay: MIC90 determination by serial dilution; type: cell-based; conditions: Staphylococcus aureus, dilution series from the Max Conc.
Description: as §1, §2, §3

MRSA 43300 [14] = assay: IC50 determination (XlFit dose response model 200); type: cell-based, methicillin-resistant Staphylococcus aureus; conditions: Staphylococcus aureus, average of 3 replicates
Description: as §4

Structure (SMILES) | MIC90 (Kleb 4352 [1]) [µg/mL] | IC50 (Kleb 4352 [2]) [µg/mL] | IC50 (EC 25922 [3]) [µg/mL] | IC50 (PA 27853 [4]) [µg/mL] | IC50 (SA 29213 [5]) [µg/mL] | IC50 (VSE 49452 [6]) [µg/mL] | IC50 (VSE 6569 [7]) [µg/mL] | MIC90 (MRSA 43300 [8]) [µg/mL] | MIC90 (VSE 49452 [9]) [µg/mL] | MIC90 (VSE 6569 [10]) [µg/mL] | MIC90 (EC 25922 [11]) [µg/mL] | MIC90 (PA 27853 [12]) [µg/mL] | MIC90 (SA 29213 [13]) [µg/mL] | IC50 (MRSA 43300 [14]) [µg/mL]
CCC(C)(C)C(=O)C(=O)N1CCCC[C@H]1C(=O)O[C@H](CCc1ccc(OC)c(OC)c1)c1cccc(OCCNC(=O)c2cccc(NC(=O)[C@@H]3C[C@H](SC4=C(C(=O)O)N5C(=O)[C@H]([C@@H](C)O)[C@H]5[C@H]4C)CN3)c2)c1 [(1), (4R,5S,6S)-3-((3S,5S)-5-(3-(2-(3-((R)-3-(3,4-dimethoxyphenyl)-1-((S)-1-(3,3-dimethyl-2-oxopentanoyl)piperidine-2-carbonyloxy)propyl)phenoxy)ethylcarbamoyl)phenylcarbamoyl)pyrrolidin-3-ylthio)-6-((R)-1-hydroxyethyl)-4-methyl-7-oxo-1-azabicyclo[3.2.0]hept-2-ene-2-carboxylic acid] | > 64 | > 64 | > 64 | > 64 | 0.942 (≈ 0.918 µM) | 6.91 (≈ 6.73 µM) | 15.2 (≈ 14.8 µM) | 8 (≈ 7.8 µM) | 16 (≈ 15.6 µM) | 64 (≈ 62.4 µM) | > 64 | > 64 | 2 (≈ 1.95 µM) | 0.265 (≈ 0.258 µM)
CCC(C)(C)C(=O)C(=O)N1CCCC[C@H]1C(=O)O[C@H](CCc1ccc(OC)c(OC)c1)c1cccc(OCC(=O)NCCCCCN2C[C@@H](SC3=C(C(=O)O)N4C(=O)[C@H]([C@@H](C)O)[C@H]4[C@H]3C)C[C@H]2C(=O)N(C)C)c1 [(2), (4R,5S,6S)-3-((3S,5S)-1-(5-(2-(3-((R)-3-(3,4-dimethoxyphenyl)-1-((S)-1-(3,3-dimethyl-2-oxopentanoyl)piperidine-2-carbonyloxy)propyl)phenoxy)acetamido)pentyl)-5-(dimethylcarbamoyl)pyrrolidin-3-ylthio)-6-((R)-1-hydroxyethyl)-4-methyl-7-oxo-1-azabicyclo[3.2.0]hept-2-ene-2-carboxylic acid] | > 64 | > 64 | > 64 | > 64 | 0.871 (≈ 0.842 µM) | 1.6 (≈ 1.55 µM) | 7.23 (≈ 6.99 µM) | 8 (≈ 7.73 µM) | 16 (≈ 15.5 µM) | 32 (≈ 30.9 µM) | > 64 | > 64 | 2 (≈ 1.93 µM) | 0.17 (≈ 0.164 µM)
NCC[C@H](O)C(=O)N[C@@H]1C[C@H](N)[C@@H](O[C@H]2O[C@H](CN)[C@@H](O)[C@H](O)[C@H]2O)[C@H](O)[C@H]1O[C@H]1O[C@H](CO)[C@@H](O)[C@H](N)[C@H]1O [Amikacin] | – | – | – | 0.274 (≈ 0.468 µM) | – | – | – | – | – | – | – | 1 (≈ 1.71 µM) | – | –
O=C(N[C@H](CO)[C@H](O)c1ccc([N+](=O)[O-])cc1)C(Cl)Cl [Chloramphenicol] | ≤ 2 | > 64 | < 2 | > 64 | > 64 | < 2 | < 2 | 4 (≈ 12.4 µM) | 4 (≈ 12.4 µM) | ≤ 2 | 8 (≈ 24.8 µM) | > 64 | 8 (≈ 24.8 µM) | < 2
C[C@H]1c2cccc(O)c2C(=O)C2=C(O)[C@]3(O)C(=O)C(C(N)=O)=C(O)[C@@H](N(C)C)[C@@H]3[C@@H](O)[C@@H]21 [Doxycycline] | – | – | – | 6.3 (≈ 14.2 µM) | – | – | – | – | – | – | – | 32 (≈ 72 µM) | – | –
CC[C@H]1OC(=O)[C@H](C)[C@@H](O[C@H]2C[C@@](C)(OC)[C@@H](O)[C@H](C)O2)[C@H](C)[C@@H](O[C@@H]2O[C@H](C)C[C@H](N(C)C)[C@H]2O)[C@](C)(O)C[C@@H](C)C(=O)[C@H](C)[C@@H](O)[C@]1(C)O [Erythromycin] | 8 (≈ 10.9 µM) | 2.21 (≈ 3.01 µM) | 20.7 (≈ 28.2 µM) | > 64 | < 2 | < 2 | 2.75 (≈ 3.75 µM) | > 64 | ≤ 2 | 8 (≈ 10.9 µM) | 64 (≈ 87.2 µM) | > 64 | ≤ 2 | > 64
C[C@@H](O)[C@H]1C(=O)N2C(C(=O)O)=C(S[C@@H]3CN[C@H](C(=O)N(C)C)C3)[C@H](C)[C@H]12 [Meropenem, meropenem, reference compound] | 0.12 (≈ 0.313 µM) | 0.121 (≈ 0.316 µM) | 0.122 (≈ 0.318 µM) | 0.945 (≈ 2.46 µM) | 0.126 (≈ 0.329 µM) | 6.74 (≈ 17.6 µM) | 11.8 (≈ 30.8 µM) | 4 (≈ 10.4 µM) | 16 (≈ 41.7 µM) | 32 (≈ 83.4 µM) | 0.06 (≈ 0.156 µM) | 1 (≈ 2.61 µM) | 0.25 (≈ 0.652 µM) | 0.037 (≈ 0.0965 µM)
O=C1CN(/N=C/c2ccc([N+](=O)[O-])o2)C(=O)N1 [Nitrofurantoin] | 16 (≈ 67.2 µM) | 3.68 (≈ 15.4 µM) | 3.27 (≈ 13.7 µM) | > 32 | 7.71 (≈ 32.4 µM) | 3.57 (≈ 15 µM) | 2.87 (≈ 12.1 µM) | 8 (≈ 33.6 µM) | 8 (≈ 33.6 µM) | 32 (≈ 134 µM) | 8 (≈ 33.6 µM) | > 32 | 16 (≈ 67.2 µM) | 1.83 (≈ 7.67 µM)
